Test results published in US20240317777A1, “NOVEL MACROCYCLIC AMINOPYRAZOLE COMPOUNDS AS CDK2 INHIBITORS” (Accutar Biotechnology Inc., priority 2023, published 2024).
pIC50: −log10 of the molar value. Where two headings read alike, the source gives them in different places.

Experiments:
Type in all cases: cell-based
[1] = test system: Phospho-Rb (Ser807/811) in OVCAR3 cells; experiment: Phospho-Rb expression inhibition in OVCAR3 cells quantified by In Cell Western; conditions: read-out: OVCAR-3 pRb IC50
Procedure: Phospho-Rb Expression Inhibition in OVCAR3 Cells Quantified by in Cell Western
OVCAR3 cells were obtained from American Type Culture Collection (ATCC, HTB-161). OVCAR3 cells were plated in 96-well plates (VWR #10062-900, or Corning #3904) in 90 uL culture medium at a density of 20,000 cells/well in the RPM11640 growth medium containing 10% FBS and 1% Penicillin Streptomycin, and then incubated at 37° C. overnight. The following day, the test compound was administered to the cells by using 1000× compound stock solution prepared in DMSO at various concentrations. 1000× compound stock solution was first diluted in culturing medium to 10x, then 10 uL compound medium was added to each well in the cell plates. After administration of the compound, the cells were then incubated at 37° C. for 24 hours. Upon completion, the cells were washed with PBS briefly. 150 uL/well of 4% formaldehyde was added and the plates were incubated at room temperature for 20 mins. The cells were washed with PBS briefly, and permeabilized with 150 uL/well of ice cold 100% methanol for 10 mins. The cells were washed with PBS briefly and blocked with 100 uL/well LI-COR blocking buffer for 1 hr at room temperature with gentle shaking. The cells were incubated overnight at 4° C. with 50 uL primary antibody rabbit anti-Phospho-Rb (Ser807/811) (1:500, Cell Signaling, #8516) and anti-Rb (1:200, Santa Cruz, sc-73598) diluted in Intercept Blocking Buffer (LI-COR, #927-60001) containing 0.1% Tween 20. The next day, the cells were washed with 200 uL PBS containing 0.1% Tween 20, 5×5 mins at room temperature with gentle shaking, and incubated with 50 uL secondary antibody, IRDye® 800CW Goat anti-Rabbit IgG (1:1000, LI-COR, #926-32211) and IRDye® 680RD Goat anti-Mouse IgG (1:1000, LI-COR, #926-68070), in LI-COR blocking buffer with 0.2% Tween 20 for 1 hr at room temperature with gentle shaking. The cells were washed with 200 uL PBS containing 0.1% Tween 20, 5×5 mins at room temperature with gentle shaking. The cells were washed with PBS for 5 mins. 100 uL fresh PBS was added to each well and the plates were imaged on a LI-COR Odyssey CLX plate reader.

[2] = test system: CCNE1-amplified OVCAR3 cells; experiment: Cell growth inhibition of CCNE1-amplified OVCAR3 cells (CellTiter-Glo); conditions: 6 days
Procedure: Cell Growth Inhibition of CCNE1-Amplified OVCAR3 Cells
(§1) OVCAR3 cells were seeded in 96-well plates at 2000 cells/well in 90 μl of RPM11640 growth medium containing 10% FBS and 1% Penicillin Streptomycin, and then incubated at 37° C. overnight. The following day, the test compound was administered to the cells by using 1000× compound stock solution prepared in DMSO at various concentrations. 1000× compound stock solution was first diluted in culturing medium to 10x, then 10 uL compound medium was added to each well in the cell plates. After administration of the compound, the cells were then incubated at 37° C. for 6 days. Upon completion, the plates were equilibrated at room temperature for approximately 10 minutes. 100 ul of CellTiter-Glo® Reagent (Promega) was added to each well. The plates were then incubated at room temperature for 10 minutes and luminescence was recorded by EnSpire plate reader (PerkinElmer).

CCNE1-normal SKOV3 cells = experiment: Cell growth inhibition of CCNE1-normal SKOV3 cells (CellTiter-Glo); conditions: Homo sapiens, SK-OV-3, 144 h, 6 days
Procedure: Cell Growth Inhibition of CCNE1-Normal SKOV3 Cells
as §1, with “SKOV3 cells were obtained from American Type Culture Collection (ATCC, HTB-77). SKOV3” for “OVCAR3”, “1000” for “2000”

[3] = Homo sapiens, OVCAR-3, 24 hours

Compound | pIC50 [1, 3] | pIC50 ([2]; Homo sapiens, OVCAR-3, 144 h) | pIC50 (CCNE1-normal SKOV3 cells) | pIC50 ([1]; 24 hours) | pIC50 [2]
C[C@H]1CCC2(CC2)NC(=O)O[C@@H]2CC[C@@H](C2)c2cc([nH]n2)Nc2ccnc(c2)O1 [compound 110] | 6.60 to 7.30 | < 6.60 | < 5.90 | – | –
C[C@H]1CCCOc2cc(c(F)cn2)Nc2cc(n[nH]2)[C@H]2CC[C@H](C2)OC(=O)N1 [Compound 174, (1^1S,1^3R,9S,Z)-4^5-fluoro-9-methyl-2^1H-5,12-dioxa-3,10-diaza-4(4,2)-pyridina-2(3,5)-pyrazola-1(1,3)-cyclopentanacyclododecaphan-11-one] | 6.60 to 7.30 | 6.60 to 7.30 | < 5.90 | – | –
C[C@H]1CCC(C)(C)NC(=O)O[C@@H]2CC[C@@H](C2)c2cc([nH]n2)Nc2ccnc(c2)O1 [Compound 113, (1^1S,1^3R,6S,Z)-6,9,9-trimethyl-2^1H-5,12-dioxa-3,10-diaza-4(4,2)-pyridina-2(3,5)-pyrazola-1(1,3)-cyclopentanacyclododecaphan-11-one] | ≥ 8.70 | 8.00 to 8.70 | 7.30 to 8.00 | – | –
C[C@H]1CCCOc2nccc(c2F)Nc2cc(n[nH]2)[C@H]2CC[C@H](C2)OC(=O)N1 [Compound 176, (1^1S,1^3R,9S,Z)-4^3-fluoro-9-methyl-2^1H-5,12-dioxa-3,10-diaza-4(4,2)-pyridina-2(3,5)-pyrazola-1(1,3)-cyclopentanacyclododecaphan-11-one] | 8.00 to 8.70 | 7.30 to 8.00 | 5.90 to 6.60 | – | –
C[C@H]1CCC(C)(C)NC(=O)O[C@@H]2CC[C@@H](C2)c2cc([nH]n2)Nc2cncc(c2)O1 [Compound 124, (1^1S,1^3R,6S,Z)-6,9,9-trimethyl-2^1H-5,12-dioxa-3,10-diaza-4(3,5)-pyridina-2(3,5)-pyrazola-1(1,3)-cyclopentanacyclododecaphan-11-one] | ≥ 8.70 | 8.00 to 8.70 | 7.30 to 8.00 | – | –
O=C1NC23CC(CCCc4cc(cc(C(F)F)n4)Nc4cc(n[nH]4)[C@H]4CC[C@H](C4)O1)(C2)C3 [Compound 98, (1^1S,1^3R,Z)-4^6-(difluoromethyl)-2^1H-11-oxa-3,9-diaza-4(4,2)-pyridina-2(3,5)-pyrazola-8(1,3)-bicyclo[1.1.1]pentana-1(1,3)-cyclopentanacycloundecaphan-10-one] | ≥ 8.70 | ≥ 8.70 | 7.30 to 8.00 | – | –
C[C@@H]1NC(=O)O[C@@H]2CC[C@@H](C2)c2cc([nH]n2)Nc2cncc(n2)OCCC1(F)F [Compound 219, (1^1S,1^3R,9S,Z)-8,8-difluoro-9-methyl-2^1H-5,12-dioxa-3,10-diaza-4(2,6)-pyrazina-2(3,5)-pyrazola-1(1,3)-cyclopentanacyclododecaphan-11-one] | ≥ 8.70 | ≥ 8.70 | 7.30 to 8.00 | – | –
O=C1NC23CC(COc4cc(ccn4)Nc4cc([nH]n4)[C@H]4CC[C@H](C4)O1)(C2)C3 [Compound 18, (1^1S,1^3R,Z)-2^1H-5,10-dioxa-3,8-diaza-4(4,2)-pyridina-2(3,5)-pyrazola-7(1,3)-bicyclo[1.1.1]pentana-1(1,3)-cyclopentanacyclodecaphan-9-one] | 6.60 to 7.30 | 6.60 to 7.30 | < 5.90 | – | –
C[C@@H]1NC(=O)O[C@@H]2CC[C@@H](C2)c2cc([nH]n2)Nc2cncc(c2)OCCC1(F)F [Compound 190, (1^1S,1^3R,9S,Z)-8,8-difluoro-9-methyl-2^1H-5,12-dioxa-3,10-diaza-4(3,5)-pyridina-2(3,5)-pyrazola-1(1,3)-cyclopentanacyclododecaphan-11-one] | 8.00 to 8.70 | 7.30 to 8.00 | 5.90 to 6.60 | – | –
C[C@H]1CCCOc2cncc(n2)Nc2cc(n[nH]2)[C@H]2CC[C@H](C2)OC(=O)N1 [Compound 233, (1^1S,1^3R,9S,Z)-9-methyl-2^1H-5,12-dioxa-3,10-diaza-4(2,6)-pyrazina-2(3,5)-pyrazola-1(1,3)-cyclopentanacyclododecaphan-11-one] | ≥ 8.70 | ≥ 8.70 | – | – | –
CC1CCCNC(=O)OC2CCC(C2)c2cc([nH]n2)Nc2cc(c[n+]([O-])c2)O1 [Compound 153, (1^1S,1^3R,6R,Z)-6-methyl-11-oxo-2^1H-5,12-dioxa-3,10-diaza-4(3,5)-pyridin-1-iuma-2(3,5)-pyrazola-1(1,3)-cyclopentanacyclododecaphane 41-oxide] | – | – | – | < 6.60 | < 6.60
[2H]C1([2H])Oc2cc(ccn2)Nc2[nH]nc(c2Cl)[C@H]2CC[C@H](C2)OC(=O)NC2CC1C2 [Compound 222, (1^1S,1^3R,7^1R,7^3S,E)-24-chloro-2^1H-5,10-dioxa-3,8-diaza-4(4,2)-pyridina-2(3,5)-pyrazola-1(1,3)-cyclopentana-7(1,3)-cyclobutanacyclodecaphan-9-one-6,6-d2] | 6.60 to 7.30 | < 6.60 | – | – | –
O=C1NCCCO[C@H](C(F)(F)F)c2cc(ccn2)Nc2cc(n[nH]2)[C@H]2CC[C@H](C2)O1 [Compound 160, (1^1S,1^3R,5S,Z)-5-(trifluoromethyl)-2^1H-6,12-dioxa-3,10-diaza-4(4,2)-pyridina-2(3,5)-pyrazola-1(1,3)-cyclopentanacyclododecaphan-11-one] | 6.60 to 7.30 | 6.60 to 7.30 | – | – | –
C[C@H]1CCCOc2cc(ccn2)Nc2[nH]nc(c2F)C2C[C@@H](F)[C@H](C2)OC(=O)N1 [Compound 237, (1^1R,1^3S,1^4R,9S,E)-1^4,2^4-difluoro-9-methyl-2^1H-5,12-dioxa-3,10-diaza-4(4,2)-pyridina-2(3,5)-pyrazola-1(1,3)-cyclopentanacyclododecaphan-11-one] | 7.30 to 8.00 | 6.60 to 7.30 | – | – | –
C[C@@H]1CC23CC(C2)(C3)NC(=O)O[C@@H]2CC[C@@H](C2)c2cc(n[nH]2)Nc2cc(nc(C(F)F)c2)O1 [compound 24] | < 6.60 | < 6.60 | – | – | –
C[C@H]1CCCOc2cc(ccn2)Nc2[nH]nc(c2F)C2C[C@H](F)[C@@H](C2)OC(=O)N1 [Compound 238, (1^1S,1^3R,1^4S,9S,E)-1^4,2^4-difluoro-9-methyl-2^1H-5,12-dioxa-3,10-diaza-4(4,2)-pyridina-2(3,5)-pyrazola-1(1,3)-cyclopentanacyclododecaphan-11-one] | 7.30 to 8.00 | 6.60 to 7.30 | – | – | –
C[C@@H]1CCC(C)(C)NC(=O)O[C@@H]2CC[C@@H](C2)c2cc([nH]n2)Nc2cncc(c2)O1 [Compound 123, (1^1S,1^3R,6R,Z)-6,9,9-trimethyl-2^1H-5,12-dioxa-3,10-diaza-4(3,5)-pyridina-2(3,5)-pyrazola-1(1,3)-cyclopentanacyclododecaphan-11-one] | < 6.60 | < 6.60 | – | – | –
[2H]C1([2H])CC[C@H](C)NC(=O)O[C@@H]2CC[C@@H](C2)c2cc([nH]n2)Nc2cc(ncc2F)O1 [Compound 175, (1^1S,1^3R,9S,Z)-4^5-fluoro-9-methyl-2^1H-5,12-dioxa-3,10-diaza-4(4,2)-pyridina-2(3,5)-pyrazola-1(1,3)-cyclopentanacyclododecaphan-11-one-6,6-d2] | < 6.60 | < 6.60 | – | – | –
O=C1NCCCOc2cc(ccn2)Nc2cc([nH]n2)[C@H]2CC[C@H](C2)O1 [Compound 2, (1^1S,1^3R,Z)-2^1H-5,11-dioxa-3,9-diaza-4(4,2)-pyridina-2(3,5)-pyrazola-1(1,3)-cyclopentanacycloundecaphan-10-one] | < 6.60 | < 6.60 | – | – | –
